These results are taken from paper PMC8341910, “Structural and biophysical insights into the mode of covalent binding of rationally designed potent BMX inhibitors” (RSC Chemical Biology, 2020).

Values after ≈ are worked out from the molar mass of the structure shown. Read-outs that look alike come from different tables or passages of the source.

The term ΔTm denotes the shift of the melting midpoint relative to a reference. For orientation: IC50 means the concentration needed to halve the response being measured. The term Papp denotes a coefficient for how fast a substance crosses the barrier. A high value points to ready permeation.

For data set [1], the target named is T1, recombinant human BMX protein (hBMX) (Homo sapiens, UniProt P51813).
T1 construct: Crystallization, data collection, and structure determination of BMX catalytic domain in; made in house; host or cells: Sf-9 insect cells
Description: Differential scanning fluorimetry (DSF). Conditions: 100 μM compound; for ΔTm at 100 µM / ΔTm: versus apo-BMX; for ΔTm at 100 µM: read-out: ΔTm; for Average Tm of BMX with compound: apo-BMX Tm 51.8-52.2 °C. In kind it is binding.

For the next data set, the target named is T2, BMX (Homo sapiens, UniProt P51813).
T2 sequence (P51813 1-675): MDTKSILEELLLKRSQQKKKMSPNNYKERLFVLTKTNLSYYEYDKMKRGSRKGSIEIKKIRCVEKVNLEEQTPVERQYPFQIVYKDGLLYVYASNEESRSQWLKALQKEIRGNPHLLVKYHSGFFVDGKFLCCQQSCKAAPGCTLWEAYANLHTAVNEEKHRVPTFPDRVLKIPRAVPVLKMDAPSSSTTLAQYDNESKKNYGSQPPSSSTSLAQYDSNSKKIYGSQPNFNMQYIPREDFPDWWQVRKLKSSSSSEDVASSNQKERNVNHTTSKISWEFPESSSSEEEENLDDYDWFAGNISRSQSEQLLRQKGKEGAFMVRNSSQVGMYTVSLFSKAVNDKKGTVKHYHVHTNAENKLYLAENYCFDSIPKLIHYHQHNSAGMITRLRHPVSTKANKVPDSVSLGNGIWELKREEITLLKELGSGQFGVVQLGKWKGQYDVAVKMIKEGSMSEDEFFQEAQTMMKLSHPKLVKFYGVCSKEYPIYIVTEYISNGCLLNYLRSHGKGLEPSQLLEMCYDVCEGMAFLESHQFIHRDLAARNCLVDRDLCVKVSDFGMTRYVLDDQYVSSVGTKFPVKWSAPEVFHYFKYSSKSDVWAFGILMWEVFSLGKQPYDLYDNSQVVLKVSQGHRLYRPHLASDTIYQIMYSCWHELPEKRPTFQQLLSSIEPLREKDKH
Description: BMX biochemical activity assay (HTRF, phosphorylation of a biotinylated peptide). Particulars: for IC50: read-out: BMX IC50. (In TR-FRET formats the signal depends on donor and acceptor labels being close together.)

The conditions of data set [2]: pH 6.8.
Data set [3] can be described thus: Dynamic light scattering, colloidal aggregation. In kind it is physicochemical. Conditions: measured at 10 µM, 1 µM and 100 nM, 25 °C, read-out: DLS maximum soluble concentration at which no aggregates are observed.
Description: In addition, we measured particle sizes by using dynamic light scattering (DLS).
DLS is measured at 10 µM, 1µM and 100 nM. The maximum soluble
concentration – at which no aggregates are observed - is indicated and the colour code indicates
Dynamic Light Scattering:
Dynamic light scattering (Zetasizer Nano S, Malvern, UK) was used to determine compound colloidal aggregation. […] A 10 mM stock solution of
test compounds was prepared in DMSO, following dilution to deionized and filtered water to
obtain an analyte solution of 10 μM (0.1% DMSO). Colloidal aggregation was measured
through sequential dilutions at 10 μM, 1 μM and 0.1 μM.
The next data set can be described thus: in vitro. Particulars: PAMPA, pH 6.8, PAMPA/Pe effective permeability. For orientation: In PAMPA a lipid-coated filter parts donor from acceptor wells.
Where [4] appears, read: Experiment 1 of Fig. S3, control JS9A (in-house BMX-IN-1).
Setting [5] is: relative to the control of the same set of experiments.
The mark [6] stands for this setting: deionized and filtered water (0.1% DMSO), kinetic from dmso stock.
The mark [7] stands for this setting: Experiment 3 of Fig. S3, control commercial BMX-IN-1.
Where [8] appears, read: Experiment 2 of Fig. S3, control commercial BMX-IN-1.

With `C=CC(=O)Nc1ccc(C)c(-n2c(=O)ccc3cnc4ccc(-c5ccc(NS(C)(=O)=O)cc5)cc4c32)c1` [JS9C, N-(4-methyl-3-(9-(4-(methylsulfonamido)phenyl)-2-oxobenzo[h][1,6]naphthyridin-1(2H)-yl)phenyl)acrylamide], in data set [1], the ΔTm at 100 µM amounted to 2.2 ± 0.06 °C and the “Average Tm of BMX with compound” value is 54.12±0.06 °C. Moreover, the half-inhibitory concentration (IC50) on BMX (setting [4]) was 6900 ± 2920 nM. The “BMX potency loss (fold) against control BMX-IN-1” value at BMX (setting [5]) is given as “abolishes target inhibition”. Further, in data set [2], the PAMPA/%R membrane retention amounted to 51±6%. Besides, the solubility in data set [3] (setting [6]) was determined as 1 µM (≈ 0.525 µg/mL). The compound further had a Papp in “in vitro” of 11 ± 1 ×10⁻⁶ cm/s.
In the case of `COC(=O)C=CCNc1cc(-n2c(=O)ccc3cnc4ccc(-c5ccc(NS(C)(=O)=O)cc5)cc4c32)ccc1C` (mixture of isomers) [JS13], in data set [1], the ΔTm was determined as 0.52±0.06 °C and the “Average Tm of BMX with compound” value worked out at 52.44±0.06 °C. In addition, in data set [2], the PAMPA/%R membrane retention is 30±16% and the PAMPA/Pe effective permeability is recorded as 45±9 x10-6 cm/sec. The solubility in data set [3] (water) is 0.1 µM.
Turning to `C=CC(=O)Nc1cc(-n2c(=O)ccc3cnc4ccc(-c5cccc(NS(C)(=O)=O)c5)cc4c32)ccc1C` [JS15], in data set [1], the ΔTm came to 8.79±0.28 °C and the “Average Tm of BMX with compound” value was 60.72±0.28 °C. Further, the IC50 at BMX (setting [7]) was determined as 119 ± 11.4 nM. For the same compound, in data set [2], the PAMPA/%R membrane retention came out at 17±24% and the PAMPA/Pe effective permeability is given as 30±18 x10-6 cm/sec. Also, the solubility in data set [3] (water) was found to be 1 µM (≈ 0.525 µg/mL).
Regarding `C=CC(=O)Nc1cccc(-n2c(=O)ccc3cnc4ccc(-c5ccc(NS(C)(=O)=O)cc5)cc4c32)c1` [JS9D], in data set [1], the ΔTm is 7.74±0.01 °C and the “Average Tm of BMX with compound” value turned out to be 59.66±0.01 °C. Also, the IC50 on BMX (setting [4]) worked out at 59 ± 5 nM. Besides, at BMX (setting [5]), the “BMX potency gain (fold) against BMX-IN-1” value amounted to 6 fold. Moreover, in data set [2], the PAMPA/%R membrane retention turned out to be 48±3% and the PAMPA/Pe effective permeability is 11±1 x10-6 cm/sec. In addition, the solubility in data set [3] (water) is recorded as 1 µM (≈ 0.511 µg/mL).
For `C=CC(=O)Nc1cc(-n2c(=O)ccc3cnc4ccc(-c5ccc(NS(=O)(=O)CCCC)cc5)cc4c32)ccc1C` [JS14], in data set [1], the ΔTm is 7.61±0.11 °C and the “Average Tm of BMX with compound” value amounted to 59.53±0.11 °C. Moreover, the IC50 on BMX (setting [8]) is 890 ± 27 nM. Also, the PAMPA/Pe effective permeability entry in data set [2] is given as “Und”. Moreover, in data set [3] (water), the solubility came out at 0.1 µM (≈ 0.0567 µg/mL).
Turning to `C=CC(=O)Nc1cc(-n2c(=O)ccc3cnc4ccc(-c5ccncc5)cc4c32)ccc1C` [JS17], in data set [1], the ΔTm is 7.62±0.01 °C and the “Average Tm of BMX with compound” value came to 59.55±0.01 °C. Further, the IC50 at BMX (setting [8]) turned out to be 45 ± 10 nM. Further, in data set [2], the PAMPA/%R membrane retention stood at 10±3% and the PAMPA/Pe effective permeability was 24±1 x10-6 cm/sec.
For `C=CC(=O)Nc1cc(-n2c(=O)ccc3cnc4ccc(-c5ccc(C(F)(F)F)nc5)cc4c32)ccc1C` [JS19], the “Average Tm of BMX with compound” value in data set [1] is 58.64±0.13 °C. The IC50 at BMX (setting [8]) is 470 ± 179 nM. The PAMPA/Pe effective permeability result in data set [2] was “Und”. Moreover, the solubility in data set [3] (water) is reported as under 0.1 µM.
As for `C=CC(=O)Nc1cc(-n2c(=O)ccc3cnc4ccc(N5CCC(N(C)C)CC5)cc4c32)ccc1C` [JS23], in data set [1], the ΔTm turned out to be 8.66±0.11 °C and the “Average Tm of BMX with compound” value was determined as 60.59±0.11 °C. Further, the IC50 at BMX (setting [8]) amounted to 41 ± 6 nM. In addition, in data set [2], the PAMPA/%R membrane retention is reported as 39±5% and the PAMPA/Pe effective permeability is given as 2.2±0.2 x10-6 cm/sec.
As to `C=CC(=O)Nc1cc(C)cc(-n2c(=O)ccc3cnc4ccc(-c5ccc(NS(C)(=O)=O)cc5)cc4c32)c1` [JS9B, N-(3-methyl-5-(9-(4-(methylsulfonamido)phenyl)-2-oxobenzo[h][1,6]naphthyridin-1(2H)-yl)phenyl)acrylamide], in data set [1], the ΔTm at 100 µM was 7.75 ± 0.11 °C and the “Average Tm of BMX with compound” value was found to be 59.68±0.11 °C. For the same compound, on BMX (setting [4]), the concentration for half-maximal inhibition (IC50) turned out to be 240 ± 25 nM. For the same compound, the PAMPA/%R membrane retention in data set [2] is reported as 35±7%. Moreover, the solubility in data set [3] (setting [6]) is under 0.1 µM. For the same compound, the apparent permeability coefficient (Papp) in the data set “in vitro” was found to be 7.1 ± 2.3 ×10⁻⁶ cm/s.
As for `C=CC(=O)Nc1cc(-n2c(=O)ccc3cnc4ccc(-c5ccc(NS(C)(=O)=O)cc5)cc4c32)ccc1OC` [JS9E], in data set [1], the ΔTm was determined as 6.05±0.01 °C and the “Average Tm of BMX with compound” value stood at 57.97±0.01 °C. The IC50 at BMX (setting [4]) is 1300 ± 206 nM. Further, the “BMX potency loss (fold) against control BMX-IN-1” value on BMX (setting [5]) is reported as 4 fold. Further, in data set [2], the PAMPA/%R membrane retention amounted to 55±8% and the PAMPA/Pe effective permeability is 40±5 x10-6 cm/sec. For the same compound, the solubility in data set [3] (water) was determined as 1 µM (≈ 0.541 µg/mL).
Turning to `C=CC(=O)Nc1cc(-n2c(=O)ccc3cnc4ccc(N5CCOCC5)cc4c32)ccc1C` [JS21], in data set [1], the ΔTm turned out to be 8.57±0.06 °C and the “Average Tm of BMX with compound” value worked out at 60.50±0.06 °C. The IC50 on BMX (setting [8]) came to 43 ± 5 nM. Besides, in data set [2], the PAMPA/%R membrane retention stood at 19±3% and the PAMPA/Pe effective permeability was 22±1 x10-6 cm/sec.
In the case of `C=CC(=O)Nc1cc(-n2c(=O)ccc3cnc4ccc(N5CCN(S(C)(=O)=O)CC5)cc4c32)ccc1C` [JS22], in data set [1], the ΔTm stood at 8.79±0.21 °C and the “Average Tm of BMX with compound” value was determined as 60.72±0.21 °C. The IC50 on BMX (setting [7]) was determined as 93.8 ± 0.87 nM. Besides, in data set [2], the PAMPA/%R membrane retention is given as 19±6% and the PAMPA/Pe effective permeability is recorded as 18±1 x10-6 cm/sec.
As for `C=CC(=O)Nc1cc(-n2c(=O)ccc3cnc4ccc(N5CCCCC5)cc4c32)ccc1C` [JS20], in data set [1], the ΔTm was found to be 7.36±0.11 °C and the “Average Tm of BMX with compound” value worked out at 59.29±0.11 °C. The IC50 at BMX (setting [8]) stood at 42 ± 13 nM. Further, in data set [2], the PAMPA/%R membrane retention was 18±1% and the PAMPA/Pe effective permeability was 30±2 x10-6 cm/sec.
In the case of `C=CC(=O)Nc1cc(-n2c(=O)ccc3cnc4ccc(-c5ccc(C#N)nc5)cc4c32)ccc1C` [JS18], in data set [1], the ΔTm came to 7.49±0.11 °C and the “Average Tm of BMX with compound” value stood at 59.42±0.11 °C. In addition, the IC50 at BMX (setting [8]) was 140 ± 12 nM. Also, in data set [2], the PAMPA/%R membrane retention was determined as 18±5% and the PAMPA/Pe effective permeability was 24±2 x10-6 cm/sec. Moreover, in data set [3] (water), the solubility is given as under 0.1 µM.
On to `C=CC(=O)Nc1cc(-n2c(=O)ccc3cnc4ccc(Br)cc4c32)ccc1C` [JS29], for which the IC50 at BMX (setting [8]) is 44 ± 2 nM. In data set [2], the PAMPA/%R membrane retention is listed as 1±1% and the PAMPA/Pe effective permeability is recorded as 32±4 x10-6 cm/sec.
Consider `Cc1ccc(-n2c(=O)ccc3cnc4ccc(-c5ccc(NS(C)(=O)=O)cc5)cc4c32)cc1NCC=CC#N` (mixture of isomers) [JS12], for which, in data set [1], the ΔTm worked out at 0.13±0.06 °C and the “Average Tm of BMX with compound” value is 52.05±0.06 °C. For the same compound, in data set [2], the PAMPA/%R membrane retention was 39±2% and the PAMPA/Pe effective permeability is 45±3 x10-6 cm/sec. The solubility in data set [3] (water) is 0.1 µM.
